Test results: US10150771B2, “Triazolopyrazinones as PDE1 inhibitors” (H. Lundbeck A/S, priority 2014, dated 2018)

How the values were obtained:
Format in all cases: biochemical
[1] = molecular target: PDE1A (Homo sapiens, UniProt P54750); assay: PDE1 inhibition assay (SPA), PDE1A; conditions: for IC50: concentration required to reach 50% inhibition of the enzyme, 15 nM tritium labelled cAMP, read-out: PDE1A inhibition (nM or %): IC50; for inhibition at 10 µM: 1 h, read-out: PDE1A inhibition (nM or %): % inhib
Protocol: (§1) PDE1 Inhibition Assay PDE1A, PDE1B and PDE1C assays were performed as follows: the assays were performed in 60 μL samples containing a fixed amount of the PDE1 enzym1 (sufficient to convert 20-25% of the cyclic nucleotide substrate), a buffer (50 mM HEPES pH 7.6; 10 mM MgCl2; 0.02% Tween20), 0.1 mg/ml BSA, 15 nM tritium labelled cAMP and varying amounts of inhibitors. Reactions were initiated by addition of the cyclic nucleotide substrate, and reactions were allowed to proceed for 1 h at room temperature before being terminated through mixing with 20 μL (0.2 mg) yttrium silicate SPA beads (PerkinElmer). The beads were allowed to settle for 1 h in the dark before the plates were counted in a Wallac 1450 Microbeta counter. The measured signals were converted to activity relative to an uninhibited control (100%) and IC50 values were calculated using XIFit (model 205, IDBS).

[2] = molecular target: PDE1B (Homo sapiens, UniProt Q01064); assay: PDE1 inhibition assay (SPA), PDE1B; conditions: for IC50: concentration required to reach 50% inhibition of the enzyme, 15 nM tritium labelled cAMP, read-out: PDE1B inhibition (nM or %): IC50; for inhibition at 10 µM: 1 h, % inhibition of the enzyme at a concentration of 10 micro molar of the compound, read-out: PDE1B inhibition (nM or %): % inhib
Protocol: as §1

[3] = molecular target: PDE1C (Homo sapiens, UniProt Q14123); assay: PDE1 inhibition assay (SPA), PDE1C; conditions: for IC50: concentration required to reach 50% inhibition of the enzyme, 15 nM tritium labelled cAMP, read-out: PDE1C inhibition (nM or %): IC50
Protocol: as §1

[4] = % inhibition of the enzyme at a concentration of 10 micro molar of the compound

PDE1C, sequence (Q14123 whole entry): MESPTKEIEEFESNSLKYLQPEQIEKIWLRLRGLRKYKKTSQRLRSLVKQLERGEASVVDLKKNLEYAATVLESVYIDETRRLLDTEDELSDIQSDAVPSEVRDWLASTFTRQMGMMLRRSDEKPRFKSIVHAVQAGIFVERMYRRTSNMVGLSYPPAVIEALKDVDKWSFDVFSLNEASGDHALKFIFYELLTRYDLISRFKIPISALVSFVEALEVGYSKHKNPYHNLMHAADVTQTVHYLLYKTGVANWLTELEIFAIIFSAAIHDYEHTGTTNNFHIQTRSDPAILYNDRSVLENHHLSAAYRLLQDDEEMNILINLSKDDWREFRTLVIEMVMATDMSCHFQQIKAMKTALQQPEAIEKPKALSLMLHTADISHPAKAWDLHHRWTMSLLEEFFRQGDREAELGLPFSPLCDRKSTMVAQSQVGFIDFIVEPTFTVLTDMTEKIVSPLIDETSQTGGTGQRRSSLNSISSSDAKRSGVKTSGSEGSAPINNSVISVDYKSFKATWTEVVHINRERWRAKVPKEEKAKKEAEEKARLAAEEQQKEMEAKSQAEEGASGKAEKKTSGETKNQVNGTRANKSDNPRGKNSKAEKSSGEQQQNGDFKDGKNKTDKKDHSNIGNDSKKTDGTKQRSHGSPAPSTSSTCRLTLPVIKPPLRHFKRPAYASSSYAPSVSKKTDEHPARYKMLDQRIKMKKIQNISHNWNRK
PDE1B, sequence (Q01064 whole entry): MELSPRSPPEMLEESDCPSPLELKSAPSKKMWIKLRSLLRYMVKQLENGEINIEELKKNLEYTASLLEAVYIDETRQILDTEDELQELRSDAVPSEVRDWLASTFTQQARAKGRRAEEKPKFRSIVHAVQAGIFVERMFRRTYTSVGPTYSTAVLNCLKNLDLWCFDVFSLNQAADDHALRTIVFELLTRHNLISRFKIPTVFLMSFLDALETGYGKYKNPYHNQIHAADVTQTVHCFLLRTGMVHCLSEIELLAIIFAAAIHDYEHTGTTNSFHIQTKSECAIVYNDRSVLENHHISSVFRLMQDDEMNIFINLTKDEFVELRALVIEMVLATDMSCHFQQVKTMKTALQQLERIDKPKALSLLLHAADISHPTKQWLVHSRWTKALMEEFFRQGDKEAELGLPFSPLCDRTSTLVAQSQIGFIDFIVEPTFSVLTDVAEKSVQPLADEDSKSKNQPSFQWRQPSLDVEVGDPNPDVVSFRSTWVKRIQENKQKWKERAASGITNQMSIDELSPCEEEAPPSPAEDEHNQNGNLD
PDE1A, sequence (P54750 whole entry): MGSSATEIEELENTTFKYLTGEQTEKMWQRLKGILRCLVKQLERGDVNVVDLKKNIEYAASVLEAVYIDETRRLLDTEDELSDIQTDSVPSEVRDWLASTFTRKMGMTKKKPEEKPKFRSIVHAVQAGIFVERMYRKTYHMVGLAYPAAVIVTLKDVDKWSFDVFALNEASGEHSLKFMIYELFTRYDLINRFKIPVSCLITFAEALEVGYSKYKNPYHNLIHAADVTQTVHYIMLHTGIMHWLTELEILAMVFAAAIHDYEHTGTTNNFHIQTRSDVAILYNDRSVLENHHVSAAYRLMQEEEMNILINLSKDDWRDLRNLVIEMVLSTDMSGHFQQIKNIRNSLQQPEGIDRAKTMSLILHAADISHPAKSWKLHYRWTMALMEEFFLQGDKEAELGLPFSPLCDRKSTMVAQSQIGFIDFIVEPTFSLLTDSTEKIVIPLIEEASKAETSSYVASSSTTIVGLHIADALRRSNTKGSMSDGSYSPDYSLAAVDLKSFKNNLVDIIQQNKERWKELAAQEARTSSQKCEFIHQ

Structure (SMILES)	IC50 [1]	IC50 [2]	IC50 [3]	inhibition at 10 µM [1, 4]	inhibition at 10 µM [2]	PDE1C inhibition (nM or %): % inhib [3, 4]	PDE1A inhibition (nM or %): % inhib [1, 4]
O=c1c2nnc(C3CCOCC3)n2cc(Br)n1CC1CCCCCC1 [6-bromo-7-(cycloheptylmethyl)-3-(tetrahydro-2H-pyran-4-yl)-[1,2,4]triazolo[4,3-a]pyrazin-8(7H)-one]	13 nM	4 nM	3 nM	–	–	–	–
O=c1c2nnc(C3CCOCC3)n2cc(Br)n1Cc1cccc(F)c1 [6-bromo-7-(3-fluorobenzyl)-3-(tetrahydro-2H-pyran-4-yl)-[1,2,4]triazolo[4,3-a]pyrazin-8(7H)-one]	114 nM	150 nM	24 nM	–	–	–	–
O=c1c2nnc(C3CCOCC3)n2cc(Br)n1CC1CCCC1 [6-bromo-7-(cyclopentylmethyl)-3-(tetrahydro-2H-pyran-4-yl)-[1,2,4]triazolo[4,3-a]pyrazin-8(7H)-one]	164 nM	140 nM	6 nM	–	–	–	–
CCCCC(CC)c1nnc2c(=O)n(Cc3cccc(F)c3)ccn12 (stereo not drawn) [7-(3-Fluorobenzyl)-3-(heptan-3-yl)-[1,2,4]triazolo[4,3-a]pyrazin-8(7H)-one]	3200 nM	1600 nM	480 nM	–	–	–	–
O=c1c2nnc([C@H]3CC[C@H](O)CC3)n2ccn1Cc1cccc(F)c1 [7-(3-Fluorobenzyl)-3-((1r,4r)-4-hydroxycyclohexyl)-[1,2,4]triazolo[4,3-a]pyrazin-8(7H)-one]	1000 nM	630 nM	200 nM	–	–	–	–
O=c1c2nnc(C3CCCCC3)n2ccn1Cc1cccc(F)c1 [3-Cyclohexyl-7-(3-fluorobenzyl)-[1,2,4]triazolo[4,3-a]pyrazin-8(7H)-one]	810 nM	590 nM	120 nM	–	–	–	–
CCCc1nnc2c(=O)n(Cc3cccc(F)c3)cc(Br)n12 [5-bromo-7-(3-fluorobenzyl)-3-propyl-[1,2,4]triazolo[4,3-a]pyrazin-8(7H)-one]	149 nM	180 nM	72 nM	–	–	–	–
CCCc1nnc2c(=O)n(CC3CCC4(CC3)CC4)ccn12 [3-propyl-7-(spiro[2.5]octan-6-ylmethyl)-[1,2,4]triazolo[4,3-a]pyrazin-8(7H)-one]	86 nM	53 nM	92 nM	–	–	–	–
O=c1c2nnc(C3CCOCC3)n2cc(Cc2ccccc2)n1CC1CCCC1 [6-benzyl-7-(cyclopentylmethyl)-3-(tetrahydro-2H-pyran-4-yl)-[1,2,4]triazolo[4,3-a]pyrazin-8(7H)-one]	65 nM	46 nM	5 nM	–	–	–	–
O=c1c2nnc([C@H]3CC[C@@H](O)CC3)n2ccn1Cc1cccc(F)c1 [7-(3-Fluorobenzyl)-3-((1s,4s)-4-hydroxycyclohexyl)-[1,2,4]triazolo[4,3-a]pyrazin-8(7H)-one]	1800 nM	1000 nM	350 nM	–	–	–	–
O=c1c2nnc(CC3CCCO3)n2ccn1Cc1cccc(F)c1 (single isomer, unassigned) [7-(3-Fluorobenzyl)-3-((tetrahydrofuran-2-yl)methyl)-[1,2,4]t] [7-(3-Fluorobenzyl)-3-((tetrahydrofuran-2-yl)methyl)-[1,2,4]triazolo[4,3-a]pyrazin-8(7H)-one]	–	–	–	–	–	–	49%
O=c1c2nnc(CC3CCCO3)n2ccn1Cc1cccc(F)c1 (single isomer, unassigned) [7-(3-Fluorobenzyl)-3-((tetrahydrofuran-2-yl)methyl)-[1,2,4]triazolo[4,3-a]pyrazin-8(7H)-one]	–	3700 nM	–	67%	67%	–	–
O=c1c2nnc(C3CCCCO3)n2ccn1Cc1cccc(F)c1 (single isomer, unassigned) [7-(3-Fluorobenzyl)-3-(tetrahydro-2H-pyran-2-yl)-[1,2,4]triazolo[4,3-a]pyrazin-8(7H)-one]	3200 nM	–	–	–	–	–	–
CCCc1nnc2c(=O)n(CC3CCOC3)ccn12 (single isomer, unassigned) [3-Propyl-7-((tetrahydrofuran-3-yl)methyl)-[1,2,4]triazolo[4,3-a]pyrazin-8(7H)-one]	–	4000 nM	–	–	67%	–	–
O=c1c2nnc(C3CCCCO3)n2ccn1Cc1cccc(F)c1 (single isomer, unassigned) [7-(3-Fluorobenzyl)-3-(tetrahydro-2H-pyran-2-yl)-[1,2,4]triaz] [7-(3-Fluorobenzyl)-3-(tetrahydro-2H-pyran-2-yl)-[1,2,4]triazolo[4,3-a]pyrazin-8(7H)-one]	3200 nM	–	–	–	–	–	–

The remaining lines, values ahead:

IC50 [1]	IC50 [2]	IC50 [3]	inhibition at 10 µM [1, 4]	inhibition at 10 µM [2]	PDE1C inhibition (nM or %): % inhib [3, 4]	PDE1A inhibition (nM or %): % inhib [1, 4]	Structure (SMILES)
320 nM	260 nM	240 nM	–	–	–	–	CCCc1nnc2c(=O)n(CC3CCCCC3C)ccn12 (mixture of isomers) [7-((2-methylcyclohexyl)methyl)-3-propyl-[1,2,4]triazolo[4,3-a]pyrazin-8(7H)-one]
111 nM	24 nM	36 nM	–	–	–	–	CCCc1nnc2c(=O)n(CC3CCC(C)CC3)ccn12 (single isomer, unassigned) [7-(((1s,4s)-4-methylcyclohexyl)methyl)-3-propyl-[1,2,4]triazolo[4,3-a]pyrazin-8(7H)-one]
1800 nM	–	–	–	–	–	–	O=c1c2nnc(C3CCCOC3)n2ccn1Cc1cccc(F)c1 (single isomer, unassigned) [7-(3-Fluorobenzyl)-3-(tetrahydro-2H-pyran-3-yl)-[1,2,4]triazolo[4,3-a]pyrazin-8(7H)-one]
1780 nM	1000 nM	260 nM	–	–	–	–	CCCc1nnc2c(=O)n(Cc3cccc(F)c3)cc([C@@H]3CCOC3)n12 (single isomer, unassigned)
3 nM	9 nM	4 nM	–	–	–	–	O=c1c2nnc(C3CCOCC3)n2cc(Cc2ccc(F)cc2)n1CC1CCCCCC1 [7-(cycloheptylmethyl)-6-(4-fluorobenzyl)-3-(tetrahydro-2H-pyran-4-yl)-[1,2,4]triazolo[4,3-a]pyrazin-8(7H)-one]
180 nM	210 nM	63 nM	–	–	–	–	CCCc1nnc2c(=O)n(CC34CC5CC(CC(C5)C3)C4)ccn12 [7-(((3r,5r,7r)-adamantan-1-yl)methyl)-3-propyl-[1,2,4]triazolo[4,3-a]pyrazin-8(7H)-one]
41 nM	44 nM	10 nM	–	–	–	–	Cc1ccccc1Cc1cn2c(C3CCOCC3)nnc2c(=O)n1CC1CCCCC1 [7-(cyclohexylmethyl)-6-(2-methylbenzyl)-3-(tetrahydro-2H-pyran-4-yl)-[1,2,4]triazolo[4,3-a]pyrazin-8(7H)-one]
3600 nM	2000 nM	1300 nM	–	–	–	–	CCCc1nnc2c(=O)n(CC3CC3)ccn12 [7-(Cyclopropylmethyl)-3-propyl-[1,2,4]triazolo[4,3-a]pyrazin-8(7H)-one]
1800 nM	–	–	–	–	–	–	O=c1c2nnc(C3CCCOC3)n2ccn1Cc1cccc(F)c1 (single isomer, unassigned) [7-(3-Fluorobenzyl)-3-(tetrahydro-2H-pyran-3-yl)-[1,2,4]triaz] [7-(3-Fluorobenzyl)-3-(tetrahydro-2H-pyran-3-yl)-[1,2,4]triazolo[4,3-a]pyrazin-8(7H)-one]
142 nM	140 nM	12 nM	–	–	–	–	O=c1c2nnc(C3CCOCC3)n2cc(Cc2ccc(F)cc2)n1CC1CCCC1 [7-(cyclopentylmethyl)-6-(4-fluorobenzyl)-3-(tetrahydro-2H-pyran-4-yl)-[1,2,4]triazolo[4,3-a]pyrazin-8(7H)-one]
54 nM	28 nM	33 nM	–	–	–	–	CCCc1nnc2c(=O)n(CC3CCCCCC3)ccn12 [7-(Cycloheptylmethyl)-3-propyl-[1,2,4]triazolo[4,3-a]pyrazin-8(7H)-one]
91 nM	82 nM	17 nM	–	–	–	–	Cc1ccccc1Cc1cn2c(C3CCOCC3)nnc2c(=O)n1Cc1cccc(F)c1 [7-(3-fluorobenzyl)-6-(2-methylbenzyl)-3-(tetrahydro-2H-pyran-4-yl)-[1,2,4]triazolo[4,3-a]pyrazin-8(7H)-one]
–	–	–	37%	46%	57%	–	CCCc1nnc2c(=O)n(CC3COC3)ccn12 [7-(Oxetan-3-ylmethyl)-3-propyl-[1,2,4]triazolo[4,3-a]pyrazin-8(7H)-one]
450 nM	420 nM	760 nM	–	–	–	–	CCCc1nnc2c(=O)n(CC3CCC(F)(F)CC3)ccn12 [7-((4,4-difluorocyclohexyl)methyl)-3-propyl-[1,2,4]triazolo[4,3-a]pyrazin-8(7H)-one]
–	–	240 nM	–	–	–	–	O=c1c2nnc(C3CCOC3)n2ccn1Cc1cccc(F)c1 (single isomer, unassigned) [7-(3-Fluorobenzyl)-3-(tetrahydrofuran-3-yl)-[1,2,4]triazolo[4,3-a]pyrazin-8(7H)-one]
–	–	240 nM	–	–	–	–	O=c1c2nnc(C3CCOC3)n2ccn1Cc1cccc(F)c1 (single isomer, unassigned) [7-(3-Fluorobenzyl)-3-(tetrahydrofuran-3-yl)-[1,2,4]triazolo[] [7-(3-Fluorobenzyl)-3-(tetrahydrofuran-3-yl)-[1,2,4]triazolo[4,3-a]pyrazin-8(7H)-one]
